Experimental data reported in patent US10508113B2, “Inhibitors of tyrosine kinase 2 mediated signaling” (AbbVie Inc., priority 2018, dated 2019).

Assays:
[1] = molecular target: T1, Jak2 (Homo sapiens, UniProt O60674); test: Jak2 (PSTATS UT7) alpha screen assay: inhibition of EPO induced phosphorylation of STAT5 in UT7 cells; type: cell-based; details: calculated from tabulated EC50 data (Jak2 / Tyk2)
T1 construct: Cell Type: UT7 cells engineered to express the erythropoietin (EPO) receptor; endogenous in cells; host or cells: UT7 cells engineered to express the EPO receptor
Description: 3. JAK2 (PSTATS UT7) ALPHA SCREEN ASSAY
Erythropoietin (EPO) is known to transduce its signal through EPO receptor via Jak2. Activity against Jak2 was therefore measured by determining inhibition of EPO induced phosphorylation of STATS in UT7 cells. […] Materials
Cell Type: UT7 cells engineered to express the erythropoietin (EPO) receptor; Culture Medium: Dulbecco's Modified Eagle Medium (DMEM) with 2 mM L-glutamine, 10 mM hydroxyethyl piperazineethanesulfonic acid (HEPES), 10% heat-inactivated fetal bovine serum (FBS) and Stock EPO (5000U in 250 uL, need 5U/mL, so add 250 μL to 1L of media); Assay Medium: 5% FBS ultra-low IgG and 1% Pen/Strep. Compounds were made-up in 100% dimethyl sulfoxide (DMSO).
Day One - Starve Cells: 4 Flasks for one 384 plate (spin down @1000 rpm for 10 minutes and add DMEM with no EPO).
(§1) Day Two—Compound Dilutions:
i. Manual 8-point 1:3 dilution curve: 5 mM top concentration dispensed in row A of a
Corning 96-well polypropylene plate, columns 2-12. DMSO dispensed in position A01 for low and high controls. Compounds were serially diluted 1:3 by adding 10 μL stock to 20 μL DMSO down the plate.
ii. Media dilution of compounds: Serially diluted compounds were diluted 1:50 in assay medium by adding 4 μL compound to 196 μL assay medium in a Corning 96-well polypropylene plate.
384 Alpha Screen Plate Set up: Transferred 2.5 μL/well of compound solution from last dilution plate. Replicates were vertical, so that one column of the 96-well dilution plate goes into one column on the 384-well plate twice. Plated 1×10^5 starved cells/well in 5μL. Washed cells in 10 mL Hank's balanced salt solution (HBSS) after spinning down. Counted live cells. Multiplied by dilution factor and 10,000 (constant) to get the concentration of viable cells. Multiplied by volume of cells to get the total number of live cells. Divided by 20,000,000 cells/mL to get the volume needed. Subtracted the original volume to get the volume to be added to get the final concentration of cells. Mixed in reservoir if needed, ensuring that all cell clumps are broken up (if not broken up, they were removed from the suspension). Cells were plated at 5 μL/well in gray Alpha Screen 384-well plate. Spinned the plate to bring the contents to the bottom of the wells at 400 rpm for 2 minutes. Top final compound concentration: 25 μM. Sealed with adhesive and tapped gently. Incubated cells at 37° C. for 30 minutes.
c. EPO Stimulation (p STATS)
Once cells were in incubator, immediately prepared working stock of EPO (1 nM final assay concentration). EPO stock=2860 nM of sterile filtered liquid in sodium citrate buffer (1 liter of ddH2O containing 5.9 g of sodium citrate, 5.8 g of sodium chloride and 0.06 g of citric acid). Diluted 1:22.72 by adding 4.44 stock EPO to 95.6 pi assay media, then dilute again […] depending on how much volume is needed for the assay plates. Used assay medium to bring to volume. Added 2.5 μL EPO to each well. Spinned plate at 400 rpm briefly; tap the plate gently before covering with an adhesive seal. Cells were incubated at 37° C. for 20 minutes.
Added 2.5 μL of 5X Lysis buffer to each well. Spinned plate at 400 rpm briefly. Incubated at room temperature (on orbital shaker) for 10 minutes.
e. Protein (A) Acceptor Beads Preparation: (Light sensitive)
Phosphorylated Signal Transducer and Activator of Transcription 5 (pSTAT5) was quantified using the PerkinElmer SureFire pSTATS (Tyrosine 694/699) Assay. Calculated total volume needed (wells×15 μL×30%). Divided total volume by 5 to get volume of activation buffer. Subtracted volume of activation buffer from total volume and divide by 40 to get volume of acceptor beads (add last). Total volume - acceptor bead volume - activation buffer to get volume of reaction buffer. Added 15 μL to each well and covered with foil. Shaked on orbital shaker for 2 hours at 500 rpm.
(§2) f. Streptavidin Donor Beads Preparation:
Calculated total volume needed (wells×6μL×30%). […]

[2] = molecular target: T2, Jak1 (Homo sapiens, UniProt P23458); test: Jak1 (PSTAT3 TF1) alpha screen assay: inhibition of IL-6 induced phosphorylation of STAT3 in TF1 cells; type: cell-based; details: calculated from tabulated EC50 data (Jak1 / Tyk2)
T2 construct: endogenous in cells; host or cells: TF1 cells
Description: 2. JAK1 (PSTAT3 TF1) ALPHA SCREEN ASSAY
IL-6 is known to transduce its signal through IL-6 receptor via Jak1. Activity against Jak1 was therefore measured by determining inhibition of IL-6 induced phosphorylation of STAT3 in TF1 cells.
Cell Type: TF1 Cells; Culture Medium: RPMI 1640 Medium, 2mM L-glutamine, 10% heat- inactivated fetal bovine serum (FBS), 10 mM hydroxyethyl piperazineethanesulfonic acid (HEPES), and 2 ng/mL recombinant human interleukin-6(IL-6); Assay Medium: Dulbecco's Modified Eagle Medium (DMEM) medium with 2 mM L-glutamine, 10 mM HEPES, 100 U/mL penicillin/streptomycin, 1.5 g/L sodium bicarbonate, 4.5 g/L glucose, 1 mM sodium pyruvate, 10% heat-inactivated FBS; Compound Preparation: Compounds are dissolved in 100% dimethyl sulfoxide (DMSO).
Day One—Starve Cells: 4 Flasks for one 384 plate (spin down @1000 rpm for 10 minutes and add RPMI 1640 Medium, 2 mM L-glutamine, 10% FBS, 10 mM HEPES with no IL-6 -incubate overnight).
as §1
i. Manual 8-point 1:5 dilution curve: 5 mM top concentration dispensed in row A of a
Corning 96-well polypropylene plate, columns 2-12. DMSO dispensed in position A01 for low and high controls. Compounds were serially diluted 1:5 by adding 10 μL stock to […] DMSO down the plate.
ii. Media dilution of compounds: Serially diluted compounds were further diluted 1:12.5 in assay medium by adding 4 μL compound to 46 μL assay medium in a Corning 96-well polypropylene plate.
384 Alpha Screen Plate Set up: Transfer 2.5 μL/well of compound solution from assay media dilution plate. Replicates were vertical, one column of the 96-well dilution plate goes into one column on the 384-well plate twice. Plated 1×10^5 starved cells/well in 5 μL. Washed cells in 10 mL DMEM medium after spinning down. Brought cell pellet up in assay media. Counted live cells. Multiplied by dilution factor and 10,000 (constant) to get the concentration of viable cells. Multiplied by volume of assay media used to bring up cells to get the total number of live cells. Divided by 20,000,000 cells/mL to get the volume needed. Cells were plated at 5 μL/well in gray Alpha Screen 384-well plate. Spinned the plate to bring the contents to the bottom of the wells at 300 rpm for 60 seconds. Top final compound concentration: 25 μM. Sealed with adhesive and tapped gently. Incubated plate at 37° C. for 30 minutes. c. IL-6 Stimulation (pSTAT3)
Once cells were in incubator, immediately prepared working stock of IL-6 (100 ng/mL final concentration). IL-6 stock=10 μg/mL of IL-6 in phosphate buffered saline with 0.1% bovine serum albumin. Diluted 1:25 by adding 60 μL stock IL-6 to 1440 μL assay media. Added 2.5 μL IL-6 to each well. Spinned plate at 300 rpm briefly; tapped the plate gently before covering with an adhesive seal. Incubated plate at 37° C. for 30 minutes.
Added 2.5 μL of 5X Lysis buffer to each well. Incubated at room temperature on orbital shaker for 10 minutes.
e. Protein (A) Acceptor Beads Preparation:
Phosphorylated Signal Transducer and Activator of Transcription 3 (pSTAT3) was quantified using the PerkinElmer SureFire pSTAT3 (Tyrosine 705) Assay. Calculated total volume needed (wells×[…]×25%). Divided total volume by 5 to get volume of activation buffer. Subtracted volume of activation buffer from total volume and divide by 40 to get volume of acceptor beads (add last). Total volume−acceptor bead volume−activation buffer=volume of reaction buffer. Added 15 μL to each well and covered with foil. Shaked on orbital shaker for 2 hours at 500 rpm.
as §2
Calculated total volume needed (wells×[…]×25%). Divided total volume by 20 to get volume of donor beads (add last). Subtracted volume of donor beads from total volume to get volume of dilution buffer. Added 6 μL to each well and covered with foil. Shaked on orbital shaker overnight at 500 rpm.
Read plate on a Perkin Elmer Envision. […]

T1 sequence (O60674 whole entry): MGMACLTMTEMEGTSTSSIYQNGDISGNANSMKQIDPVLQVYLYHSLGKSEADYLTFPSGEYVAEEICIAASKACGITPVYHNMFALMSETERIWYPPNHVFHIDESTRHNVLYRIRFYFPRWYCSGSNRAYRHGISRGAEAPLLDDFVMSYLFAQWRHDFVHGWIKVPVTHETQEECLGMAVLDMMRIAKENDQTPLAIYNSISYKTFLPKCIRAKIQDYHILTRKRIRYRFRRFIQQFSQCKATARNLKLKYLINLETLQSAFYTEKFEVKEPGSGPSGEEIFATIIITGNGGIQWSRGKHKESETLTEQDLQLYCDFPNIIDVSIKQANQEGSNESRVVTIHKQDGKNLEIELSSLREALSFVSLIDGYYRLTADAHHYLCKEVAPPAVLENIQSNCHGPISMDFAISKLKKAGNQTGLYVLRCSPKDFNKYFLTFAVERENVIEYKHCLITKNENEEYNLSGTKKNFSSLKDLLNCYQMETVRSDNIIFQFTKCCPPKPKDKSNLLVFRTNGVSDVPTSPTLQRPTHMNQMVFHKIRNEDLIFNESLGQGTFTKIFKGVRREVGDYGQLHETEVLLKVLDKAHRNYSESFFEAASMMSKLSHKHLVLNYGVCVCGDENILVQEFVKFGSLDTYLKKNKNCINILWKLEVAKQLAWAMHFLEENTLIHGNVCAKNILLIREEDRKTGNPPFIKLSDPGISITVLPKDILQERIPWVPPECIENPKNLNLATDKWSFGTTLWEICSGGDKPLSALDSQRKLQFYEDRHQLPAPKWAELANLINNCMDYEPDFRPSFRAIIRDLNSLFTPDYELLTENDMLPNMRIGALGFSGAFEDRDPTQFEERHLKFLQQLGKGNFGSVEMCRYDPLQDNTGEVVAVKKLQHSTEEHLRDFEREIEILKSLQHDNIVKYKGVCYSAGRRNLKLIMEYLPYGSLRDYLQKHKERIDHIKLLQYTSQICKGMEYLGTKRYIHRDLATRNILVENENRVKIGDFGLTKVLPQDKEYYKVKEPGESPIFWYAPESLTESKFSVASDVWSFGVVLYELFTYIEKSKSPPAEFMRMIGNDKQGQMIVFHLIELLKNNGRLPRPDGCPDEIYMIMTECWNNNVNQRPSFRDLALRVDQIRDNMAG
T2 sequence (P23458 whole entry): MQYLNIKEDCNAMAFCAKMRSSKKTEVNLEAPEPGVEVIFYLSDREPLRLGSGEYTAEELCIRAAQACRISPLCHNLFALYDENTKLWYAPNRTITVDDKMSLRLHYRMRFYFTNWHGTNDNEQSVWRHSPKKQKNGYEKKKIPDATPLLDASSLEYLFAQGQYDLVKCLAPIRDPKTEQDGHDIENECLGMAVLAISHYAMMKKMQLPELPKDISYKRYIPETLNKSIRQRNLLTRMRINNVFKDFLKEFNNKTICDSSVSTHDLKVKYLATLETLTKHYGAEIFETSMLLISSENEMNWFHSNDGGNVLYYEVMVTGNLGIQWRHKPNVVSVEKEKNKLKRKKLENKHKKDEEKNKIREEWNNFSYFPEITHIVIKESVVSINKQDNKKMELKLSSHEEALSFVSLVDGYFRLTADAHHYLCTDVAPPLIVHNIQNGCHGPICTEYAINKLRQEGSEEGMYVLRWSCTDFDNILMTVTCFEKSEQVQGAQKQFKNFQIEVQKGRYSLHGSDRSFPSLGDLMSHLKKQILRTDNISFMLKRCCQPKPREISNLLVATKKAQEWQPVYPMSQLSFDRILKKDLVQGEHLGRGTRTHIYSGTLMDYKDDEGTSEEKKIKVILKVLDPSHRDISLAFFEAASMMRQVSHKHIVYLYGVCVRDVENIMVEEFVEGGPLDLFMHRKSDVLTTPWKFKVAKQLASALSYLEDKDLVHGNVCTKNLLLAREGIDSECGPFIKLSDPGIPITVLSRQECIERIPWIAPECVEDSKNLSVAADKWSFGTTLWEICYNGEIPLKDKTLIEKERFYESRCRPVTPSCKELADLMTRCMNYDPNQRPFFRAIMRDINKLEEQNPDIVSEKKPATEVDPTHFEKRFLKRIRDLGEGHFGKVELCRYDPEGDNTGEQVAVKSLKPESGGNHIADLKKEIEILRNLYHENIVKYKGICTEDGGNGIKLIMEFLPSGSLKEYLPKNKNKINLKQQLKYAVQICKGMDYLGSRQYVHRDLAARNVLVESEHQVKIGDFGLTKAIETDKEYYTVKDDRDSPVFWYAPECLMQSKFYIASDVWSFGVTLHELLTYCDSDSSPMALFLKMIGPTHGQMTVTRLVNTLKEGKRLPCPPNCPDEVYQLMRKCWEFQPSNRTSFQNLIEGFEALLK

Compound | Tyk2 selectivity over Jak2 [1] | Tyk2 selectivity over Jak1 [2]
CO[C@@]1(c2cccc(-c3cn(C)c4cnc(NC(N)=O)cc34)n2)CCOC1 [Example 1, (R)-1-(3-(6-(3-Methoxytetrahydrofuran-3-yl)pyridin-2-yl)-1-methyl-1H-pyrrolo[2,3-c]pyridin-5-yl)urea] | >424-fold | 92-fold
CO[C@@]1(c2cccc(-c3cn([C@@H]4CC4(F)F)c4cnc(NC(N)=O)cc34)n2)CCOC1 [Example 1.2, 1-(1-((R)-2,2-difluorocyclopropyl)-3-(6-((R)-3-methoxytetrahydrofuran-3-yl)pyridin-2-yl)-1H-pyrrolo[2,3-c]pyridin-5-yl)urea] | >556-fold | 300-fold
CO[C@@]1(c2cc(C)cc(-c3cn(C)c4cnc(NC(N)=O)cc34)n2)CCOC1 [Example 1b.2, (R)-1-(3-(6-(3-methoxytetrahydrofuran-3-yl)-4-methylpyridin-2-yl)-1-methyl-1H-pyrrolo[2,3-c]pyridin-5-yl)urea] | >1000-fold | 840-fold
COC1(c2cccc(-c3cn(C)c4cnc(NC(N)=O)cc34)n2)COC1 [Example 1b.4, 1-(3-(6-(3-methoxyoxetan-3-yl)pyridin-2-yl)-1-methyl-1H-pyrrolo[2,3-c]pyridin-5-yl)urea] | >176-fold | 54-fold
Cn1cc(-c2cncc([C@]3(C)CCOC3)n2)c2cc(NC(N)=O)ncc21 [Example 1b.5, (S)-1-(1-methyl-3-(6-(3-methyltetrahydrofuran-3-yl)pyrazin-2-yl)-1H-pyrrolo[2,3-c]pyridin-5-yl)urea] | >1389-fold | 83-fold
Cn1cc(-c2cncc([C@@]3(C)CCOC3)n2)c2cc(NC(N)=O)ncc21 [Example 1b.6, (R)-1-(1-methyl-3-(6-(3-methyltetrahydrofuran-3-yl)pyrazin-2-yl)-1H-pyrrolo[2,3-c]pyridin-5-yl)urea] | >128-fold | 22-fold
COCc1cc(-c2cn(C)c3cnc(NC(C)=O)cc23)nc([C@]2(OC)CCOC2)c1 [Example 2, (R)-N-(3-(4-(Methoxymethyl)-6-(3-methoxytetrahydrofuran-3-yl)pyridin-2-yl)-1-methyl-1H-pyrrolo[2,3-c]pyridin-5-yl)acetamide] | >198-fold | >317-fold
CO[C@@]1(c2cc(C)cc(-c3cn(C)c4cnc(NC(C)=O)cc34)n2)CCOC1 [Example 2.2, (R)-N-(3-(6-(3-methoxytetrahydrofuran-3-yl)-4-methylpyridin-2-yl)-1-methyl-1H-pyrrolo[2,3-c]pyridin-5-yl)acetamide] | >126-fold | 207-fold
CO[C@@]1(c2cc(C(F)F)cc(-c3cn(C)c4cnc(NC(C)=O)cc34)n2)CCOC1 [Example 2.8, (R)-N-(3-(4-(difluoromethyl)-6-(3-methoxytetrahydrofuran-3-yl)pyridin-2-yl)-1-methyl-1H-pyrrolo[2,3-c]pyridin-5-yl)acetamide] | >595-fold | 405-fold
CC[C@]1(c2cc(C#N)cc(-c3cn(C)c4cnc(NC(C)=O)cc34)n2)CCOC1 [Example 2.11, (R)-N-(3-(4-cyano-6-(3-ethyltetrahydrofuran-3-yl)pyridin-2-yl)-1-methyl-1H-pyrrolo[2,3-c]pyridin-5-yl)acetamide] | >240-fold | 72-fold
CO[C@@]1(c2cc(C#N)cc(-c3cn([C@@H]4CC4(F)F)c4cnc(NC(C)=O)cc34)n2)CCOC1 [Example 2a.3, N-(3-(4-cyano-6-((R)-3-methoxytetrahydrofuran-3-yl)pyridin-2-yl)-1-((R)-2,2-difluorocyclopropyl)-1H-pyrrolo[2,3-c]pyridin-5-yl)acetamide] | >197-fold | 440-fold
COCc1cc(-c2cn(C)c3cnc(NC(C)=O)cc23)nc([C@@]2(CO)CCOC2)c1 [Example 22a, (R)-N-(3-(6-(3-(hydroxymethyl)tetrahydrofuran-3-yl)-4-(methoxymethyl)pyridin-2-yl)-1-methyl-1H-pyrrolo[2,3-c]pyridin-5-yl)acetamide] | >21-fold | 
